Experimental data taken from PubChem BioAssay (NCI).
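Assay format: 96-well plates, 48-hour exposure. GI50 is the concentration that inhibits growth by half. Definition used: TGI = concentration required for complete inhibition of growth.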

Assays:
Assay in all cases: growth of human tumour cells (NCI), 48 h
[1] = test system: 786-0 renal
[2] = test system: A498 renal
[3] = test system: A549 NSCLC
[4] = test system: ACHN renal
[5] = test system: BT-549 breast
[6] = test system: CAKI-1 renal
[7] = test system: COLO 205 colon
[8] = test system: DU-145 prostate
[9] = test system: EKVX NSCLC
[10] = test system: HCT-116 colon
[11] = test system: HCT-15 colon
[12] = test system: HL-60(TB) leukemia
[13] = test system: HOP-62 NSCLC
[14] = test system: HOP-92 NSCLC
[15] = test system: HS 578T breast
[16] = test system: HT29 colon
[17] = test system: IGROV1 ovarian
[18] = test system: K-562 leukemia
[19] = test system: KM12 colon
[20] = test system: LOX IMVI melanoma
[21] = test system: M14 melanoma
[22] = test system: MCF7 breast
[23] = test system: MDA-MB-231 breast
[24] = test system: MDA-MB-435
[25] = test system: MOLT-4 leukemia
[26] = test system: NCI-H226 lung
[27] = test system: NCI-H23 lung
[28] = test system: NCI-H460 lung
[29] = test system: NCI-H522 lung
[30] = test system: NCI/ADR-RES ovarian
[31] = test system: OVCAR-3 ovarian
[32] = test system: OVCAR-4 ovarian
[33] = test system: OVCAR-5 ovarian
[34] = test system: OVCAR-8 ovarian
[35] = test system: PC-3 prostate
[36] = test system: RPMI-8226 leukemia
[37] = test system: RXF 393 renal
[38] = test system: SF-268 CNS
[39] = test system: SF-295 CNS
[40] = test system: SF-539 CNS
[41] = test system: SK-MEL-2 melanoma
[42] = test system: SK-MEL-28 melanoma
[43] = test system: SK-MEL-5 melanoma
[44] = test system: SK-OV-3 ovarian
[45] = test system: SN12C renal
[46] = test system: SNB-19 CNS
[47] = test system: SNB-75 CNS
[48] = test system: SR leukemia
[49] = test system: SW-620 colon
[50] = test system: TK-10 renal
[51] = test system: U251 CNS
[52] = test system: UACC-257 melanoma
[53] = test system: UACC-62 melanoma
[54] = test system: UO-31 renal

Cc1cc(S(=O)(=O)Nc2nc3ccccc3o2)c(SCc2ccccc2)cc1Cl
GI50 [1]: 20.8 µM
TGI [1]: 47.2 µM
GI50 [2]: 23.1 µM
TGI [2]: 43.3 µM
GI50 [3]: 21.7 µM
TGI [3]: 45.3 µM
GI50 [4]: 17.9 µM
TGI [4]: 38.4 µM
GI50 [5]: 30.5 µM
TGI [5]: 79.3 µM
GI50 [6]: 19.6 µM
TGI [6]: 47.3 µM
GI50 [7]: 22.1 µM
TGI [7]: 51.1 µM
GI50 [8]: 26.5 µM
TGI [8]: 77.9 µM
GI50 [9]: 21.9 µM
TGI [9]: 55.8 µM
GI50 [10]: 13.8 µM
TGI [10]: 33.4 µM
GI50 [11]: 21.5 µM
TGI [11]: 52.8 µM
GI50 [12]: 36.9 µM
TGI [12]: > 100 µM
GI50 [13]: 28.5 µM
TGI [13]: > 100 µM
GI50 [14]: 4.65 µM
TGI [14]: 20.9 µM
GI50 [15]: 29.5 µM
TGI [15]: 78.9 µM
GI50 [16]: 33.8 µM
TGI [16]: > 100 µM
GI50 [17]: 48.9 µM
TGI [17]: > 100 µM
GI50 [18]: 31.8 µM
TGI [18]: > 100 µM
GI50 [19]: 18.4 µM
TGI [19]: 43.4 µM
GI50 [20]: 14.9 µM
TGI [20]: 34.8 µM
GI50 [21]: 17.5 µM
TGI [21]: 38 µM
GI50 [22]: 22.4 µM
TGI [22]: 78.3 µM
GI50 [23]: 35.9 µM
TGI [23]: 90.5 µM
GI50 [24]: 19.8 µM
TGI [24]: 42.7 µM
GI50 [25]: 24.4 µM
TGI [25]: > 100 µM
GI50 [26]: 26.4 µM
TGI [26]: 72.9 µM
GI50 [27]: 19 µM
TGI [27]: 40.3 µM
GI50 [28]: 15.5 µM
TGI [28]: 52.2 µM
GI50 [29]: > 100 µM
TGI [29]: > 100 µM
GI50 [30]: 20 µM
TGI [30]: 40.9 µM
GI50 [31]: 16.7 µM
TGI [31]: 42.1 µM
GI50 [32]: 25.4 µM
TGI [32]: 67.9 µM
GI50 [33]: 20.3 µM
TGI [33]: 46.1 µM
GI50 [34]: 21 µM
TGI [34]: 50.2 µM
GI50 [35]: 16.1 µM
TGI [35]: 30.5 µM
GI50 [36]: 11.2 µM
TGI [36]: 30.1 µM
GI50 [37]: 29.5 µM
TGI [37]: 61.5 µM
GI50 [38]: 18.9 µM
TGI [38]: 47.7 µM
GI50 [39]: 19.2 µM
TGI [39]: 57 µM
GI50 [40]: 19.1 µM
TGI [40]: 40.8 µM
GI50 [41]: 48.6 µM
TGI [41]: > 100 µM
GI50 [42]: 25.6 µM
TGI [42]: 62.9 µM
GI50 [43]: 16.7 µM
TGI [43]: 33.4 µM
GI50 [44]: 34.3 µM
TGI [44]: > 100 µM
GI50 [45]: 32.1 µM
TGI [45]: 90.1 µM
GI50 [46]: 21.6 µM
TGI [46]: 67.8 µM
GI50 [47]: 38.6 µM
TGI [47]: 90.8 µM
GI50 [48]: 11.5 µM
TGI [48]: > 100 µM
GI50 [49]: 20.6 µM
TGI [49]: 56.4 µM
GI50 [50]: 28.6 µM
TGI [50]: 90.7 µM
GI50 [51]: 16.1 µM
TGI [51]: 31 µM
GI50 [52]: 21.2 µM
TGI [52]: 50.2 µM
GI50 [53]: 28.7 µM
TGI [53]: 79.5 µM
GI50 [54]: 32.9 µM
TGI [54]: > 100 µM
